According to US20260266828A1, “BIOMARKERS FOR PREDICTING CANCER TREATMENT EFFICACY” (Arcus Biosciences, Inc., priority 2023, published 2026):

Legend:
MC38 tumors = test: Flow cytometry phenotyping of MC38 tumors and tdLN after treatment; format: in vivo, mouse; conditions: three days after the first OXA exposure
Protocol: Methods—Mouse tumor-infiltrating lymphocyte and lymph node phenotyping. MC38 tumors were minced with scissors and dissociated with tumor digestion buffer [RPMI 1640 supplemented with 20% FBS, 0.25 mg/mL Collagenase D (Roche), and 100 KUnits/mL Type IV DNase I (Sigma-Aldrich)]. Single-cell tumor suspensions were passed through a 70 μm cell strainer and washed. Inguinal lymph nodes were collected from the same side as the tumor (tumor-draining lymph node, tdLN), minced, passed through a 70 μm cell strainer and washed. A total of 1×10^6 tumor or lymph node cells per well were incubated at room temperature (RT) with live-dead NIR (Invitrogen) and anti-mouse CD16/CD32 Fc block (BD Biosciences). For p15E tetramer staining, cells were washed and incubated with tetramer at RT. Cells were stained for surface and intracellular markers and analyzed by flow cytometry as indicated above.
In vivo experiments were performed at Arcus Biosciences in accordance with federal, state, and institutional guidelines and were approved by Arcus Biosciences' Institutional Animal Care and Use Committee. Female 6-8 week old C57BL/6J mice were purchased from Charles River Laboratories. Mice were injected subcutaneously on the right flank with 1×10^6 MC38 cells in 100 μL PBS. Once tumors were established (sized indicated in figure legends), mice were randomized into groups based on tumor size distribution. […] The dosing regimens for anti-PD-1 and anti-TIGIT were determined via receptor occupancy (RO) assays using commercially available a competitive anti-TIGIT antibody (clone GIGD7), a non-competitive PD-1 antibody (clone J43) as well as direct detection of both anti-TIGIT and anti-PD-1 via secondary antibody (Jackson Immunoresearch anti-mouse IgG, Fcγ subclass 2a specific). The dosing regimen for FTY720 was determined in naïve C57BL/6 females by examining lymphocyte frequencies and numbers in the blood 24 h after dosing. Tumor volume was monitored with digital calipers and volume was calculated using the formula: (Length×Width^2)/2. […]

MC38 cells [1] = conditions: 1 μM, 72 hours
Protocol: (§1) Lines and error represent the mean±standard deviation (SD) of biological triplicates. […] In FIG. 5B and FIG. 5C, lines and error represent the mean±SD of biological duplicates.
(§2) For flow cytometry, MC38 cells were plated in supplemented RPMI medium at 1×10^5 cells/well in a 12-well tissue culture plate. For CellTiter-Glo (Promega) analysis, cells were plated in supplemented RPMI medium at 5×10^3 cells/well in a 96-well white flat-bottom tissue culture plate. […] Data were normalized to PBS treated cells. For flow cytometry, cells were harvested using a cell scraper, and transferred into a 96-well round-bottom plate for staining. Cells were washed, incubated with live-dead aqua and anti-mouse CD16/CD32 Fc block at RT followed by cell surface staining with anti-mouse PD-L1 BV711 (clone MIH4, BD Biosciences) and anti-mouse CD155 BUV395 (clone 3F1, BD Biosciences) at 4° C. Cells were washed, fixed with IC fixation buffer (Invitrogen) at RT, washed again, and resuspended in PBS for flow cytometry.

MC38 cells [2] = test: In vitro oxaliplatin treatment of MC38 cells, flow cytometry of PD-L1 and CD155; format: cell-based, mouse; conditions: dying cells, ≥1 μM, 22 h
Protocol: as §1, §2

[3] = test system: first line (1L) metastatic NSCLC; test: Real-world progression free survival analysis by CD155 gene expression, de-identified health records; format: in vivo, human
Description: This example retrospectively evaluated the predictive value of CD155 expression for a clinical outcome using real-world data. […] Real-world progression free survival (rwPFS) is defined in this study as the time from treatment initiation until the first occurrence of progressive disease (PD) or death up to the end date of the same line of therapy. […] Otherwise, patients were censored at the last known follow up time. rwPFS is right censored at 36 months. The analysis was performed using de-identified health records of first line (1L) metastatic NSCLC patients treated with chemotherapy only, treated with pembrolizumab monotherapy, or treated with chemotherapy and pembrolizumab. A filter was applied to select for records where biopsies were obtained ≤12 months prior to the first dose of treatment. Records were excluded if the patient had EGF or ALK alterations.
The health records for each patient included information such as sex, race, smoking status, biopsy site, stage at time of diagnosis, subtype of lung cancer (adenocarcinoma or squamous cell carcinoma), tumor purity, PD-L1 expression, treatment (chemotherapy, pembrolizumab, or chemotherapy+pembrolizumab), clinical outcome, etc., as well as gene expression data for a number of targets (e.g., TIGIT, CD155, CD73). Chemotherapy for adenocarcinomas was cisplatin or carboplatin+pemetrexed. Chemotherapy for squamous cell carcinomas was either carboplatin and paclitaxel or nab-paclitaxel. Gene expression was quantified from RNA-seq data as transcript per million (tpm). Kaplan-Meier models were performed by gene and according to the following breakdowns: NSCLC subtype (all; adenocarcinoma only; squamous cell carcinoma only), PD-L1 expression (all; <1% TPS; 1-49% TPS; ≥50% TPS), and treatment (chemotherapy only, pembrolizumab only, chemotherapy and pembrolizumab). Results presented as Kaplan-Meier (KM) plots splitting high and low gene expressors into different groups, whereby high gene expression was defined as expression equal to or greater than a cut-off value determined by one of several threshold methodologies (e.g., median, 1st tertile (1st third vs last two thirds), 2nd tertile (two thirds vs. last third) and MaxStat (an outcome-oriented method providing a value of a cutpoint that corresponds to the most significant relation with outcome). Cox Proportional-Hazards tests were used to assess the effect of gene expression as a continuous variable, and hazard ratios were provided with each KM plot using the low gene expressor group as a reference.

[4] = test system: Jurkat cell line stably overexpressing human TIGIT; conditions: increasing concentrations up to 33 nM; cited from earlier work
[5] = molecular target: T1, FcγR-IIIA (V158 high-affinity variant) (Homo sapiens, UniProt P08637, F176V); parameters: dose or concentration left out as unconfirmed; conditions: cited from earlier work
T1 construct: expressed in transfected cells

[6] = test system: FcγR isotypes I, IIA, JIB, IIIA, and IIIB; parameters: dose or concentration left out as unconfirmed; conditions: compared with wild-type IgG1 control antibody; cited from earlier work

T1 sequence (P08637 17-254 F176V): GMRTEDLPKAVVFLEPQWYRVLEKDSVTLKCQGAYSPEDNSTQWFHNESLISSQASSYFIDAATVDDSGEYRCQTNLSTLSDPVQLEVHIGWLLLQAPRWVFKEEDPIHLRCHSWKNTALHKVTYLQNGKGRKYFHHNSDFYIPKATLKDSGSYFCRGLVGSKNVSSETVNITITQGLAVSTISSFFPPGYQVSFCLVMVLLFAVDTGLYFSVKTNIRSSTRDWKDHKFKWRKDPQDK

Q: What does the source list for `O=C1[O][Pt]2([NH][C@@H]3CCCC[C@H]3[NH]2)[O]C1=O` [OXA, oxaliplatin]?
A: TCF-1 positivity in tumoral CD8+ T cells (MC38 tumors): increase; intratumoral monocytes (MC38 tumors): decreases; tumor neutrophils (MC38 tumors): increase; cancer cell death (MC38 cells [1]): ~100%; expression of PD-L1 and CD155 ligands (MC38 cells [2]): increased expression

Q: For pembrolizumab, which “Median real-world progression-free survival (rwPFS)” value ([3]; CD155 High, threshold method Median, PD-L1 TPS 1-49%) is on record?
A: 5.4 mo

Q: What about the “Median real-world progression-free survival (rwPFS)” value ([3]; CD155 High, threshold method Median, PD-L1 TPS <1%) of the same molecule?
A: 13.8 mo

Q: And the “Median real-world progression-free survival (rwPFS)” value ([3]; CD155 High, threshold method Median, PD-L1 TPS All)?
A: 7.67 mo

Q: What about the “Median real-world progression-free survival (rwPFS)” value ([3]; CD155 High, threshold method Median, PD-L1 TPS ≥50%) of the same molecule?
A: 8.53 mo

Q: And the “Median real-world progression-free survival (rwPFS)” value ([3]; CD155 High, threshold method q33, PD-L1 TPS 1-49%)?
A: 4.63 mo

Q: What about the “Median real-world progression-free survival (rwPFS)” value ([3]; CD155 High, threshold method q33, PD-L1 TPS <1%) of the same molecule?
A: 8.1 mo

Q: And the “Median real-world progression-free survival (rwPFS)” value ([3]; CD155 High, threshold method q33, PD-L1 TPS All)?
A: 8.07 mo

Q: What about the “Median real-world progression-free survival (rwPFS)” value ([3]; CD155 High, threshold method q33, PD-L1 TPS ≥50%) of the same molecule?
A: 8.63 mo

Q: What about the “Median real-world progression-free survival (rwPFS)” value ([3]; CD155 High, threshold method q67, PD-L1 TPS 1-49%) of the same molecule?
A: 3.93 mo

Q: And the “Median real-world progression-free survival (rwPFS)” value ([3]; CD155 High, threshold method q67, PD-L1 TPS <1%)?
A: 13.8 mo

Q: What about the “Median real-world progression-free survival (rwPFS)” value ([3]; CD155 High, threshold method q67, PD-L1 TPS All) of the same molecule?
A: 7.03 mo

Q: What about the “Median real-world progression-free survival (rwPFS)” value ([3]; CD155 High, threshold method q67, PD-L1 TPS ≥50%) of the same molecule?
A: 7.23 mo

Q: And the “Median real-world progression-free survival (rwPFS)” value ([3]; CD155 Low, threshold method Median, PD-L1 TPS 1-49%)?
A: 6.2 mo

Q: And the “Median real-world progression-free survival (rwPFS)” value ([3]; CD155 Low, threshold method Median, PD-L1 TPS <1%)?
A: 8.1 mo

Q: And the “Median real-world progression-free survival (rwPFS)” value ([3]; CD155 Low, threshold method Median, PD-L1 TPS All)?
A: 10.3 mo

Q: And the “Median real-world progression-free survival (rwPFS)” value ([3]; CD155 Low, threshold method Median, PD-L1 TPS ≥50%)?
A: 14.1 mo

Q: And the “Median real-world progression-free survival (rwPFS)” value ([3]; CD155 Low, threshold method q33, PD-L1 TPS 1-49%)?
A: 9.67 mo

Q: And the “Median real-world progression-free survival (rwPFS)” value ([3]; CD155 Low, threshold method q33, PD-L1 TPS <1%)?
A: 8.1 mo

Q: And the “Median real-world progression-free survival (rwPFS)” value ([3]; CD155 Low, threshold method q33, PD-L1 TPS All)?
A: 13.3 mo

Q: And the “Median real-world progression-free survival (rwPFS)” value ([3]; CD155 Low, threshold method q33, PD-L1 TPS ≥50%)?
A: 17.1 mo

Q: What about the “Median real-world progression-free survival (rwPFS)” value ([3]; CD155 Low, threshold method q67, PD-L1 TPS 1-49%) of the same molecule?
A: 7.1 mo

Q: And the “Median real-world progression-free survival (rwPFS)” value ([3]; CD155 Low, threshold method q67, PD-L1 TPS <1%)?
A: 8.1 mo

Q: And the “Median real-world progression-free survival (rwPFS)” value ([3]; CD155 Low, threshold method q67, PD-L1 TPS All)?
A: 9.67 mo

Q: And the “Median real-world progression-free survival (rwPFS)” value ([3]; CD155 Low, threshold method q67, PD-L1 TPS ≥50%)?
A: 11.7 mo

B1: domvanalimab (antibody, chains of the INN, looked up, V domains shown)
VH: EVQLVESGGGLVQPGGSLRLSCAASGFTFSNFGMHWVRQAPGKGLEWVAFISSGSSSIYYADTVKGRFTISRDNAKNSLYLQMNSLRAEDTAVYYCARMRLDYYAMDYWGQGTMVTVSS
VL: DIQMTQSPSSLSASVGDRVTITCRASKSISKYLAWYQQKPGKAPKLLIYSGSTLQSGVPSRFSGSGSGTDFTLTISSLQPEDFATYYCQQHNEYPWTFGGGTKVEIK
notes: Fc-silent anti-TIGIT antibody with engineered IgG1 Fc
Q: For B1, which complement dependent cytotoxicity [4] is on record?
A: No cytotoxicity

Q: What about the “activity in FcγR-IIIA effector reporter bioassay” value [5] of the same molecule?
A: inactive

Q: And the “binding to FcγR isotypes” value [6]?
A: no significant binding
